Measured values published in US6511453B2, “Device for controlled anaesthesia, analgesia and/or sedation” (priority 1997, dated 2003).

Assays:
patient = test: Intravenous infusion of xenon-containing emulsion in a patient; settings: in vivo
Method: To achieve a subanaesthetic action, the xenon load in the medicinal preparation need only be about 0.2 to 0.3 ml of xenon per ml of emulsion. This means that an analgesic and/or sedative action is assured for preparations with a xenon content of at least 0.2 ml/ml emulsion. An anti-inflammatory action is already observed at 0.1 ml/ml emulsion. […] When working with a highly laden perfluorocarbon emulsion containing 2 to 4 ml of xenon per ml of emulsion, for example, 20 ml of this emulsion are infused over 30 sec, for example, in order to induce anaesthesia. An infusion rate of at least 7.5 ml/min is sufficient to maintain the anaesthesia. A total of 470 ml of emulsion would thus be used for a 1-hour operation. With a xenon content of 3 ml of xenon per ml of emulsion, this corresponds to a xenon volume of 1410 ml, i.e. a fraction of the xenon consumed in inhalation anaesthesia (based on a body weight of 85 kg, this would be a consumption of 16.6 ml per kg in one hour).

[1] = Loading of emulsions with xenon (xenon uptake, stability); assay type: physicochemical; settings: 10% by weight fatty emulsion saturated with xenon
Method: The loading capacity of the abovementioned perfluorocarbon preparation is considerable. Xenon loads of e.g. 1 to 10 ml/ml have been achieved by the simplest means. For example, these preparations can be loaded with inert gas simply by having the gas passed through them.
Thus, even by the simplest means, xenon can be dissolved or dispersed in concentrations of 0.2 to 10 ml or more per ml of fatty emulsion (concentrations relate to standard conditions, i.e. 20° C. and normal pressure). The xenon concentration depends on a large number of factors, especially the concentration of the fat. As a rule the preparations will be “loaded” with xenon up to the saturation limit. However, it is also possible for very small concentrations to be present, provided, for example, that a pharmacological activity can still be observed on intravenous administration. In the case of a 10% fatty emulsion, it is easily possible to reach xenon concentrations of 0.3 to 2 ml of xenon per ml of fatty emulsion. It is of course also possible to reach higher values, e.g. 3, 4, 5, 6 or 7 ml of xenon per ml of fatty emulsion. These fatty emulsions are sufficiently stable, at least in gas-tight containers, for the xenon not to be released as a gas over conventional storage periods. […]

With `[Xe]` [xenon, Xenon] the “Xenon content at which an anti-inflammatory action is observed” value (patient) was 0.1 ml/ml emulsion, the “Xenon content that assures an analgesic and/or sedative action” value (patient) was “at least 0.2 ml/ml emulsion” and the “Xenon content at saturation” value [1] was “about 0.3 ml of xenon per ml of emulsion”.
